Data from ChEMBL document CHEMBL1201862, “PubChem BioAssay data set” (2004).
Activity calls are given as the source filed them.

How the values were obtained:
HEK293 [1] = assay: inhibition of NOD1-driven NF-kB reporter – cell-based, luminescence, uHTS, primary screen (AID 1578); format: functional; details: Homo sapiens
HEK293 [2] = assay: cells; format: functional, cell-based; details: Homo sapiens
[3] = target: Transitional endoplasmic reticulum ATPase (Homo sapiens, UniProt P55072, C522A); assay: C522A mutant p97 ATPase inhibitors, dose response, counter-screen for p97 inhibitor project, biochemical, luminescence (AID 1544)
HEK293 [4] = assay: cells; format: functional, cell-based; details: Homo sapiens; remark: listed apart in the source
[5] = CCR5-tropic HIV-1 fusion blockers – cell-based, CCR5-tropic Env, dose response (AID 2279); format: functional
HEK293 [6] = assay: NOD2 signaling inhibitors in MDP-stimulated cells, cell-based, uHTS, luminescence (AID 2001); format: functional; details: Homo sapiens
[7] = target: Transitional endoplasmic reticulum ATPase (Homo sapiens, UniProt P55072); assay: p97 ATPase inhibitors, dose response, biochemical (AID 1534)
[8] = target: Induced myeloid leukemia cell differentiation protein Mcl-1 (Homo sapiens, UniProt Q07820); format: functional
Nonstructural protein 1 = Nonstructural protein 1 (Influenza A virus, UniProt Q194T2); format: functional, Influenza A virus (A/California/07/2009(H1N1))
Vero [9] = assay: viability of Vero cells under compound – cytotoxicity control for flavivirus capping enzyme inhibitors (AID 588742); format: functional; details: Chlorocebus sabaeus
Genome polyprotein = Genome polyprotein (dengue virus type 2, UniProt P29990); assay: flavivirus cap methylation enzyme inhibition – biochemical, confirmation dose response, primary screen (AID 588689); format: functional
[10] = target: T1, Histone-lysine N-methyltransferase NSD2 (Homo sapiens, UniProt O96028); format: biochemical
T1 sequence (O96028 whole entry): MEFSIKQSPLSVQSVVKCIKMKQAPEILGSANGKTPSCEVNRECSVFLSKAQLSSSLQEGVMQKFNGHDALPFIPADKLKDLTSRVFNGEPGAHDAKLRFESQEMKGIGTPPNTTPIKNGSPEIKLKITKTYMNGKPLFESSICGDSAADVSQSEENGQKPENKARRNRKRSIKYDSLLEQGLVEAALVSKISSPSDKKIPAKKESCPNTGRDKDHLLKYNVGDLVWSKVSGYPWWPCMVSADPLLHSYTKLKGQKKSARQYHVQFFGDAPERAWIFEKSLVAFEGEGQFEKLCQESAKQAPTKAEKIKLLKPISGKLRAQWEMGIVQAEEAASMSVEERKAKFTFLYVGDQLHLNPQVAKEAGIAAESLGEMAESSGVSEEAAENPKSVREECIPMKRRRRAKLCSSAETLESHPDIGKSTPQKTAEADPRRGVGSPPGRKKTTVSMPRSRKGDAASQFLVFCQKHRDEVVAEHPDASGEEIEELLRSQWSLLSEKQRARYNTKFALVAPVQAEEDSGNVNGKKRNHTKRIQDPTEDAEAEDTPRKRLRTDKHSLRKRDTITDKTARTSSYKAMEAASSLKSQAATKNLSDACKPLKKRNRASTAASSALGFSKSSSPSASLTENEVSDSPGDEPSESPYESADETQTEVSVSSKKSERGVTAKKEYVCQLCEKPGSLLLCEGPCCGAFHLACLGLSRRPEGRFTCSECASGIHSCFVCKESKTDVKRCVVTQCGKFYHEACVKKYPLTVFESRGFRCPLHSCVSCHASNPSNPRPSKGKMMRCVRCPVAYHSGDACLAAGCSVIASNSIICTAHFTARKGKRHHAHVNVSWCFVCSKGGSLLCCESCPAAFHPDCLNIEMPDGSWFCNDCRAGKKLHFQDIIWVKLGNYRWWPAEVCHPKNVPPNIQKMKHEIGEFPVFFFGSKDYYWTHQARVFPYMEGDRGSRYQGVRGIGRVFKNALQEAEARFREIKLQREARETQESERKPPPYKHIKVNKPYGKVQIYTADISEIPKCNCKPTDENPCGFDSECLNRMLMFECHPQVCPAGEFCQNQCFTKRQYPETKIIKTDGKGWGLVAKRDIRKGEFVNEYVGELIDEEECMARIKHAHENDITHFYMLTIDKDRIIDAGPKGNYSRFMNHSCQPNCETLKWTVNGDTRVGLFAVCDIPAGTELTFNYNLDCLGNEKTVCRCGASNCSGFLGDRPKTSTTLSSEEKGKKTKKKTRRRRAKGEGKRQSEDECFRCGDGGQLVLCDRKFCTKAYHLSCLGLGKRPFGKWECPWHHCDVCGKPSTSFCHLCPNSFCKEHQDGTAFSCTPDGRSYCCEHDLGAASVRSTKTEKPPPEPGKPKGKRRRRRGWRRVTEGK

[11] = target: T2, Neuropeptides B/W receptor type 1 (Homo sapiens, UniProt P48145); assay: Fluorescence-based dose response cell-based high throughput screening assay to identify antagonists of the G-protein coupled receptor 7 (GPR7). [Related pubchem assays: 1952 (Screening assay (GPR7 antagonists).), 1880 (Summary AID.)]; format: functional
T2 sequence (P48145 whole entry): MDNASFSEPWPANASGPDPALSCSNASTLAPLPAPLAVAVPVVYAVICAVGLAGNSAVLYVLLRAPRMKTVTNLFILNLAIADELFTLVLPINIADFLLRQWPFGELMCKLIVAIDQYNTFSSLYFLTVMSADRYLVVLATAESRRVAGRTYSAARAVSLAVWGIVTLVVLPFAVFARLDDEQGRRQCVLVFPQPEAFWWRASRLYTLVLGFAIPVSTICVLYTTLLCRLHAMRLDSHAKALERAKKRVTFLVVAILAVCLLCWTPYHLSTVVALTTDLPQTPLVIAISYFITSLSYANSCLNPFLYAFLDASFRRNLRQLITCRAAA

[12] = target: Melanin-concentrating hormone receptor 1 (Homo sapiens, UniProt Q99705); assay: Fluorescence-based counterscreen for antagonists of the G-protein coupled receptor 7 (GPR7): cell-based high throughput dose response assay to identify antagonists of the melanin-concentrating hormone receptor 1 (MCHR1).; format: functional
[13] = Trypanosoma cruzi growth suppression in host cells – NIH3T3 host cells, beta-gal luminescence, confirmation (AID 2044); format: functional, cell-based;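 further: intracellular parasites grown in NIH/3T3 mouse fibroblasts as host cells; luminescent beta-galactosidase reporter signal from transgenic T. cruzi replicating inside host cells; inhibitors lower the luminescence signal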
[14] = NIH3T3 cell viability loss – ATP luminescence, mouse fibroblasts, counter-screen, dose response (AID 2010); format: functional, cell-based;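 further: cells exposed to compound for about 90 hours before reading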
[15] = target: Cyclin-dependent kinase 5/CDK5 activator 1 (Homo sapiens, UniProt Q00535); assay: blockade of human CDK5 activity – biochemical, cherry-picked samples, set 2, dose response (AID 504545)
[16] = target: T3, Eukaryotic translation initiation factor 2-alpha kinase 3 (Homo sapiens, UniProt Q9NZJ5); assay: Dose response cell-based high-throughput screening assay to measure PERK inhibition. [Related pubchem assays: 1416 ]; format: functional
[17] = target: T3, Eukaryotic translation initiation factor 2-alpha kinase 3; assay: Counterscreen assay for PERK inhibitors: Dose response cell-based high throughput screening assay to measure inhibition of PERK at 6 hours. [Related pubchem assays: 1522, 1416 ]; format: functional
Vero [18] = assay: host cell viability loss, Vero E6 – synthesized analogs, cytotoxicity control for West Nile virus antiviral project, SAR follow-up (AID 2244); format: functional; details: Chlorocebus sabaeus

T3 sequence (Q9NZJ5 whole entry): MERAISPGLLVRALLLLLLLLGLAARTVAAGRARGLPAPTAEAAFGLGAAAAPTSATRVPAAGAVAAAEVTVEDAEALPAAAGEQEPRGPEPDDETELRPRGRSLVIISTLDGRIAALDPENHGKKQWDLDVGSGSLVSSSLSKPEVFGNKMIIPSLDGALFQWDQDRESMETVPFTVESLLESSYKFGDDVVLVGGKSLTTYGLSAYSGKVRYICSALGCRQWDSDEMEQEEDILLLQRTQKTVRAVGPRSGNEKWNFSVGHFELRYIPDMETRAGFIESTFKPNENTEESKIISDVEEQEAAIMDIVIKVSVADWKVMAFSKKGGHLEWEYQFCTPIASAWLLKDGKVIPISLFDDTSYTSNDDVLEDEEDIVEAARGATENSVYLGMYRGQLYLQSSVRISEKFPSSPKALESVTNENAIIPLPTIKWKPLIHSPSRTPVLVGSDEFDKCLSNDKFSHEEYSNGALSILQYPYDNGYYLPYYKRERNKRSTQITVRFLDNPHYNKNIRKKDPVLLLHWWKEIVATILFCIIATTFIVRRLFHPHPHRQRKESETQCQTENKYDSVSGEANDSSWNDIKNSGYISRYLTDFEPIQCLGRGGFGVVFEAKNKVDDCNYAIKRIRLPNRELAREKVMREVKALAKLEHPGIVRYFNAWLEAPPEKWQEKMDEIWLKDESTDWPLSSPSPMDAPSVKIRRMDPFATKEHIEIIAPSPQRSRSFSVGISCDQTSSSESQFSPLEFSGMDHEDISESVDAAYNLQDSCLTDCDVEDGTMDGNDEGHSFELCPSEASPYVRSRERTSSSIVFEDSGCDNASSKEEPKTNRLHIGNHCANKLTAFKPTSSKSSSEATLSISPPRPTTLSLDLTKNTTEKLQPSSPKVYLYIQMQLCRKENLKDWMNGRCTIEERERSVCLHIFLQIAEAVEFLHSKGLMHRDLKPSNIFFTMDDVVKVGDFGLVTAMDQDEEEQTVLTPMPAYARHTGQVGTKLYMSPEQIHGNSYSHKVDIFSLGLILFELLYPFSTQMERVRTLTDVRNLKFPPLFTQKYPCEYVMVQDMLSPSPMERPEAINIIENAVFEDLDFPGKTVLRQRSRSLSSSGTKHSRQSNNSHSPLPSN
Melanin-concentrating hormone receptor 1, sequence (Q99705 whole entry): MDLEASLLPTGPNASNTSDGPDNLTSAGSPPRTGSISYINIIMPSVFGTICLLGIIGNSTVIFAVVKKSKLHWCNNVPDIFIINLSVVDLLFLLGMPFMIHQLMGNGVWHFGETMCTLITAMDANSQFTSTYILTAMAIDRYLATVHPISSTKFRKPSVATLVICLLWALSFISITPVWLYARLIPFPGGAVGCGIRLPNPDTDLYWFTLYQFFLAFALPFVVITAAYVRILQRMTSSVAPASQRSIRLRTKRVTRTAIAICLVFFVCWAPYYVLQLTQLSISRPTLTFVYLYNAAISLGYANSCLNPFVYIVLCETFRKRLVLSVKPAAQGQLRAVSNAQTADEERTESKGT
Transitional endoplasmic reticulum ATPase (Homo sapiens, UniProt P55072, C522A), sequence (P55072 2-806 C522A limits assumed): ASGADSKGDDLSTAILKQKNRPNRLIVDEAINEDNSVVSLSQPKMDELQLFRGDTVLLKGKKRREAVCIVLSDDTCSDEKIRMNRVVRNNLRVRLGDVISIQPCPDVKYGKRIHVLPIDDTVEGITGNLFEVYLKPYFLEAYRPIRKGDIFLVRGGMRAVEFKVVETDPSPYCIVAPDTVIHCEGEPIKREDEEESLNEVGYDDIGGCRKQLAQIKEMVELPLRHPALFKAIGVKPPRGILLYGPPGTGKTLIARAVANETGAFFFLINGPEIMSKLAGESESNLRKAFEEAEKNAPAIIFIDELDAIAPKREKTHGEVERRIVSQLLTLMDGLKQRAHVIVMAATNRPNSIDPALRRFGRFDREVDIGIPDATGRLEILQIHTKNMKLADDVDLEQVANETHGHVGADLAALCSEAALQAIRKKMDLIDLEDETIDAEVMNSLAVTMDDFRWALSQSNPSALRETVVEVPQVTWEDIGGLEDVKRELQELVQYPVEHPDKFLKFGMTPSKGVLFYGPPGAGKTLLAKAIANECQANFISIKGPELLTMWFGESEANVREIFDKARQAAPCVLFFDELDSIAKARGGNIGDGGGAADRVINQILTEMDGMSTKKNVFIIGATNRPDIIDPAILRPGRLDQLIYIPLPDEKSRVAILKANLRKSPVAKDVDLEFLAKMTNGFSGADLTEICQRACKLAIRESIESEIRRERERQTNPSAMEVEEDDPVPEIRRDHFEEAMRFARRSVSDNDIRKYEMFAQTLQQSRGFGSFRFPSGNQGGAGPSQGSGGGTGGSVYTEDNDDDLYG
Genome polyprotein, sequence (P29990 2492-3391 limits assumed): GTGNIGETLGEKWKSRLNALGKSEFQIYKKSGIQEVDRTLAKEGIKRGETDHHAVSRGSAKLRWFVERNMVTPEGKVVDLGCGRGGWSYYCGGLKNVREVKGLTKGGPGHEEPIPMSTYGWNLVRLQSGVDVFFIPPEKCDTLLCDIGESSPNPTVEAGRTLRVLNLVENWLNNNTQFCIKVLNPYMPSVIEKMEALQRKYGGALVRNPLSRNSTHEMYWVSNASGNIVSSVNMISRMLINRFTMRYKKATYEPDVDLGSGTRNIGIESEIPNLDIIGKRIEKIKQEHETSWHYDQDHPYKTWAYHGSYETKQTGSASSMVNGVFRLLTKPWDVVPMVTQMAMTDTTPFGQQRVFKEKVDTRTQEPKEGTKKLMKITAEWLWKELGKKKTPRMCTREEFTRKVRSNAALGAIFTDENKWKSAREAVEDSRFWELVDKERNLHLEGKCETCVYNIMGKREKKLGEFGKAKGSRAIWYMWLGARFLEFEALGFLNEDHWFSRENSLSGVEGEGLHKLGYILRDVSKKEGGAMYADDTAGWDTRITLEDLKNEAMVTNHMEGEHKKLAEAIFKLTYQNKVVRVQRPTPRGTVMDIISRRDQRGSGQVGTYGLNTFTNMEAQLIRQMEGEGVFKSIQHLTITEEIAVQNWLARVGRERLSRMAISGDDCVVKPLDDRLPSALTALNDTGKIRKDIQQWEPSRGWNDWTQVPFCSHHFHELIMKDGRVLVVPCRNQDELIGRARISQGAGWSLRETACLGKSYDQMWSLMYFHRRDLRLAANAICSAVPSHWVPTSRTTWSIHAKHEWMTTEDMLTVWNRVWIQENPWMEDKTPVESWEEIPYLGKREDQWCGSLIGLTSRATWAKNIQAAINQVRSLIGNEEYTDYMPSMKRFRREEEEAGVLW
Nonstructural protein 1, sequence (Q194T2 whole entry): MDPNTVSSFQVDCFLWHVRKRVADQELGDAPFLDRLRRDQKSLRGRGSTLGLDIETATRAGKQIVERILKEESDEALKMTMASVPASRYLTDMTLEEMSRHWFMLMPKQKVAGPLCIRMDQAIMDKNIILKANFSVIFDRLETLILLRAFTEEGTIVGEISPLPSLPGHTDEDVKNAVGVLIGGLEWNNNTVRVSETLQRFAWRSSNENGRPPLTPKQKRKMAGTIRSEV
Transitional endoplasmic reticulum ATPase (Homo sapiens, UniProt P55072), sequence (P55072 whole entry): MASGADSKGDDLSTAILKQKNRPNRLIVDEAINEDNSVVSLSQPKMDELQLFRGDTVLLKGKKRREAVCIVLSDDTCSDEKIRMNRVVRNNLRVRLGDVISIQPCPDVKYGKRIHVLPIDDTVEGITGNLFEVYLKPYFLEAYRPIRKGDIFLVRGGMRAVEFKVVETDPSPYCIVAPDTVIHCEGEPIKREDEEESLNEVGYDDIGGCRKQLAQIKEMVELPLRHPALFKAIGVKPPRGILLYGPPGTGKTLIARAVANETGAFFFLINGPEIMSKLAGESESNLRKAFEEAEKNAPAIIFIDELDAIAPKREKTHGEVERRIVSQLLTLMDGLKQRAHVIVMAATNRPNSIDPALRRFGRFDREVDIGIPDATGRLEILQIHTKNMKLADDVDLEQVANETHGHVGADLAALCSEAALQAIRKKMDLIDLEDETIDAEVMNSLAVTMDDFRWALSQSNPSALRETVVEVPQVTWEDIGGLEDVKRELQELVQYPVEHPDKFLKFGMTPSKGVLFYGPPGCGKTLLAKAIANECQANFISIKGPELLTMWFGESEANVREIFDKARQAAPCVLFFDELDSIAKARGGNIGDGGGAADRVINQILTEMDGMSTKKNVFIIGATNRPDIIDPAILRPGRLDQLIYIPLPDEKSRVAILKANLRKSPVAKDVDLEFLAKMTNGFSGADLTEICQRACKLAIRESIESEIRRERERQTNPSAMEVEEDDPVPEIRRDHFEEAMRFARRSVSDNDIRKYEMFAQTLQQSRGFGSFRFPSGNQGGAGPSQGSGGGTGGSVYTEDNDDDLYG
Cyclin-dependent kinase 5/CDK5 activator 1, sequence (Q00535 whole entry): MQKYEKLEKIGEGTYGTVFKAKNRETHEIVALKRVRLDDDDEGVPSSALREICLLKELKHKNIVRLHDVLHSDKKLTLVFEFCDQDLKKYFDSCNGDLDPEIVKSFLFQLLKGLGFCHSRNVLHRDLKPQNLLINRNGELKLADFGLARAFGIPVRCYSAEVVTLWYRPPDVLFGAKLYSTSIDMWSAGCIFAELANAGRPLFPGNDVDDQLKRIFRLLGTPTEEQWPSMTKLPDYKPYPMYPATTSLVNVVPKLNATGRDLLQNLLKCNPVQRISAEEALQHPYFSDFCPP
Cyclin-dependent kinase 5/CDK5 activator 1, sequence (Q15078 whole entry, further chain): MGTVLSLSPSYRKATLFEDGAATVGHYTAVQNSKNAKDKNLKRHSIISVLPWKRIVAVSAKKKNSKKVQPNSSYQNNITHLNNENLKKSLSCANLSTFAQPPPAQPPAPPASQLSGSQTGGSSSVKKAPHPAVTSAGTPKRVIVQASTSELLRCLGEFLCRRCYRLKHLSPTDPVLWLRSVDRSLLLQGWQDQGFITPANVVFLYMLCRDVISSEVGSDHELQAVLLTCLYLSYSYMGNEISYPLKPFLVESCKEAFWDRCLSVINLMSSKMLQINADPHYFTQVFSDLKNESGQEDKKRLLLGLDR

In the case of `CCn1nc([N+](=O)[O-])c(C(C#N)c2nc3cc(C(F)(F)F)ccc3s2)c(Cl)c1=O` (stereo not given), the EC50 (HEK293 [1]) is reported as 6.94 µM (active), the IC50 (HEK293 [2]) is reported as 2.78 µM (active) and the IC50 [3] is reported as > 50 µM (not active). The IC50 (HEK293 [4]) was 11 µM (active), the IC50 [5] was 11.9 µM (active) and the IC50 (HEK293 [6]) was 3.47 µM (inactive). For the same compound, the IC50 [7] was > 50 µM (not active), the IC50 [8] was 3.87 µM (active) and the IC50 (Nonstructural protein 1) was 19.9 µM (active). The CC50 (Vero [9]) was > 40 µM (active), the IC50 (Genome polyprotein) was 57.5 µM (active) and the AC50 [10] was 19 µM (active).
For `CC(C)C(=O)N1CCN(c2ccccc2NC(=O)c2ccc([N+](=O)[O-])o2)CC1`, the IC50 [11] was > 43.8 µM (not active), the IC50 [12] was 64.4 µM (not active) and the EC50 [13] was 0.431 µM (active). The EC50 [14] was > 60 µM (not active).
With `CC(C)n1cnc2c(Nc3cccc(F)c3)nc(NCCO)nc21` the AC50 [15] was 5.86 µM (active).
With `Cc1cscc1NC(=O)/C=C/C(=O)O` the EC50 [16] was > 55.7 µM (not active) and the EC50 [17] was > 55.7 µM (not active).
In the case of `COc1ccc(-c2csc(NC(=O)c3ccccc3F)n2)cc1`, the CC50 (Vero [18]) is reported as > 40 µM (active).
